Read-outs that look alike come from different tables or passages of the source. One block for each compound: values may come before it.
Columns and labels:
[1] = tested on: SART stressed mouse; test: Test for analgesic effect (1): SART stressed mouse, modified Randall-Selitto tail pressure method; assay type: in vivo, mice; conditions: for Analgesic coefficient: 25 ng per mouse into the lateral ventricle, 30 minutes after administration, pain threshold of test group divided by that of SART control group, 1.0 = no effect
[2] = tested on: mice; test: Test for analgesic effect (4): acetic acid writhing test; assay type: in vivo; conditions: oral single dose; 0.7% acetic acid i.p. 25 minutes after; writhing numbers during 10 minutes
Procedure: The compounds of the present invention or the carboxylic acid type thereof were orally administered to mice and a test for an analgesic effect was carried out by means of an acetic acid writhing test. As to the test animals, male mice of ddY strain of four weeks age were subjected to a preliminary breeding and they were used where one group comprised ten mice. Each of the compound of the present invention or the carboxylic acid type thereof as a test substance was orally administered in a single dose while, to a control group, distilled water (water for injection) was administered similarly. After 25 minutes from the administration of the test substance, a 0.7% acetic acid/physiological saline was intraperitoneally administered at the dose of 10 mL/kg. From 5 minutes thereafter, writhing numbers during 10 minutes were counted and a suppressive rate for each mouse was calculated according to the following formula. Suppressive Rate (%)=[(Mean writhing numbers of the control group)−(Writhing numbers of each mouse)]÷[Mean writhing numbers of the control group]×100

[3] = tested on: Chung model rat; test: Test for analgesic effect (2)/(3): Chung model rat, mechanical allodynia by von Frey filament; assay type: in vivo, rats
Procedure: A test for analgesic effect was conducted using a Chung model rat which is a neuropathic pain model. As to the test animal, male rats of Wistar strain of nine weeks age were used and model rats were prepared in accordance with the method of Kim and Chung (Pain, vol. 50, pages 355 to 363, 1992). Thus, under anesthetization with pentobarbital (40 mg/kg, intraperitoneal administration), rat L5 spinal nerve was exposed and L5 dorsal root ganglion periphery side was strongly ligated using 5-0 silk yarn. The animals were placed in a transparent acrylate cage whose bottom was made of wire net, a 50% reaction threshold value was calculated by an up-down method using a von Frey filament (manufactured by North Coast Medical Inc.) according to the methods of Chaplan, et al. (J. Neurosci. Method, vol. 53, pages 55 to 63, 1994) and by Lee, et al. (J. Neurophysiol., vol. 81, pages 2226 to 2233, 1999) and measurement of allodynia was conducted. Before injury of spinal nerve, the 50% reaction threshold value was measured twice and the animals where the threshold value was outside the standard were excluded from the operation for spinal nerve injury. […] Those test animals were made into groups of seven animals so that the mean value of 50% reaction threshold after 28 days from the nerve injury as an index became nearly the same in each group.
The carboxylic acid type of the compounds of the present invention as a test substance was intraperitoneally administered in a single dose while, a 0.5% CMC-Na/physiological saline solution was administered similarly to a nerve injury control group. After 30 minutes from the administration of the test substance, allodynia was measured to calculate a 50% reaction threshold value. With regard to a significance test, Paired t-test was conducted for comparison between before and after the nerve injury and Dunnett's multiple comparison test was used for comparison among multiple groups of the nerve injury control group and the test substance administration group.
According to the same manner as in the above Test for Analgesic Effect (2), each of Compound 12 of the present invention (3 mg/kg, 10 mg/kg) and Carboxylic acid substance A of the compound of the present invention (10 mg/kg) was orally administered in a single dose as the test substance to Chung model rats. Allodynia after 0, 15, 30, 60 and 120 minutes from the administration was measured for each of the test substance administration group and the nerve injury control group whereupon a 50% reaction threshold value was calculated.

[4] = Test of kinetics in blood of rats; assay type: in vivo
Procedure: Each of the compound of the present invention and the carboxylic acid type A thereof was dissolved in DMSO, diluted with water. A sample solution (1% DMSO solution) made into 2 mg/mL was orally administered in a single dose to the fasted Wistar strain SPF male rats of seven weeks age using a stomach tube (10 mg/5 mL/kg). At the stages of 0.25, 0.5, 1, 2, 4 and 8 hour(s) after the administration, about 150 μL of the blood was collected from tail vein using a capillary to which heparin was added and said capillary was centrifuged to collect the plasma. Protein was removed from the plasma sample and the supernatant liquid was diluted to prepare each sample solution for the measurement.

[5] = design: species or system cynomolgus monkeys; conditions: cynomolgus monkey, in vivo, 30 mg/kg
Procedure: Each of the compound of the present invention and Carboxylic acid type A thereof dissolved or suspended in a hydrochloric acid solution was diluted with water. […] At the stages of before the administration and of 0.25, 0.5, 1, 2, 4, 8 and 24 hour(s) after the administration, the blood was collected from femoral vein using a syringe to which heparin was added followed by subjecting to centrifugation to collect the plasma. Collection of the blood was conducted for three times in total where one collection was done with each blank term of six days for each test substance. Concentration of Carboxylic acid type A in each of the collected plasma samples was quantified by an LC-MS and Cmax (maximum drug concentration in plasma) and AUC (area under blood concentration time curve; 0 to ∞ hour(s)) of the compound of the present invention and Carboxylic acid type A thereof were calculated.

AUC ([4]; rat, in vivo, po, 10 mg/kg): 2.0276 µg·h/mL
Cmax ([4]; rat, in vivo, po, 10 mg/kg): 1.6239 µg/mL
SMILES: C=CC(=O)N[C@@H](Cc1cncn1C)C(=O)OC [Compound 1, N^α-acryloyl-N^π-methyl-L-histidine methyl ester]

AUC ([4]; rat, in vivo, po, 10 mg/kg): 3.468 µg·h/mL
Cmax ([4]; rat, in vivo, po, 10 mg/kg): 2.7194 µg/mL
SMILES: C=CC(=O)N[C@@H](Cc1cncn1C)C(=O)OCC [Compound 2, N^α-acryloyl-N^π-methyl-L-histidine ethyl ester]

AUC ([4]; rat, in vivo, po, 10 mg/kg): 2.6418 µg·h/mL
Cmax ([4]; rat, in vivo, po, 10 mg/kg): 2.144 µg/mL
SMILES: C=CC(=O)N[C@@H](Cc1cncn1C)C(=O)OCCC(C)C [Compound 4, N^α-acryloyl-N^π-methyl-L-histidine isopentyl ester]

AUC ([4]; rat, in vivo, po, 10 mg/kg): 3.2642 µg·h/mL
Cmax ([4]; rat, in vivo, po, 10 mg/kg): 2.7616 µg/mL
SMILES: C=CC(=O)N[C@@H](Cc1cncn1C)C(=O)OCCC(C)(C)C [Compound 5, N^α-acryloyl-N^π-methyl-L-histidine 3,3-dimethylbutyl ester]

AUC ([4]; rat, in vivo, po, 10 mg/kg): 2.7746 µg·h/mL
Cmax ([4]; rat, in vivo, po, 10 mg/kg): 2.4072 µg/mL
SMILES: C=CC(=O)N[C@@H](Cc1cncn1C)C(=O)OCCCC [Compound 6, N^α-acryloyl-N^π-methyl-L-histidine butyl ester]

AUC ([4]; rat, in vivo, po, 10 mg/kg): 3.7507 µg·h/mL
Cmax ([4]; rat, in vivo, po, 10 mg/kg): 2.6717 µg/mL
SMILES: C=CC(=O)N[C@@H](Cc1cncn1C)C(=O)OCc1ccc(C)cc1 [Compound 9, N^α-acryloyl-N^π-methyl-L-histidine 4-methylbenzyl ester]

AUC ([4]; rat, in vivo, po, 10 mg/kg): 3.747 µg·h/mL
Cmax ([4]; rat, in vivo, po, 10 mg/kg): 2.5799 µg/mL
SMILES: C=CC(=O)N[C@@H](Cc1cncn1C)C(=O)OCc1ccc(Cl)cc1 [Compound 10, N^α-acryloyl-N^π-methyl-L-histidine 4-chlorobenzyl ester]

AUC ([4]; rat, in vivo, po, 10 mg/kg): 4.2346 µg·h/mL
Cmax ([4]; rat, in vivo, po, 10 mg/kg): 2.2074 µg/mL
SMILES: C=CC(=O)N[C@@H](Cc1cncn1C)C(=O)OCc1ccc(C(C)(C)C)cc1 [Compound 11, N^α-acryloyl-N^π-methyl-L-histidine 4-tert-butylbenzyl ester]

AUC [5]: 8.099 µg·h/mL
Cmax [5]: 4.0882 µg/mL
AUC ([4]; rat, in vivo, po, 10 mg/kg): 3.9716 µg·h/mL
Cmax ([4]; rat, in vivo, po, 10 mg/kg): 3.1116 µg/mL
SMILES: C=CC(=O)N[C@@H](Cc1cncn1C)C(=O)OCCc1ccccc1 [Compound 12, N^α-acryloyl-N^π-methyl-L-histidine phenethyl ester]
anti-allodynia action as compared with the nerve injury control group ([3]; oral single dose (Compound 12: 3 and 10 mg/kg; Carboxylic acid type A: 10 mg/kg), 15, 30 and 60 minutes after administration, FIG. 1): significant anti-allodynia action
anti-allodynia action compared with Carboxylic acid type A in the same dose ([3]; oral, 10 mg/kg): stronger anti-allodynia action

AUC ([4]; rat, in vivo, po, 10 mg/kg): 4.0583 µg·h/mL
Cmax ([4]; rat, in vivo, po, 10 mg/kg): 3.1634 µg/mL
SMILES: C=CC(=O)N[C@@H](Cc1cncn1C)C(=O)OCCc1ccc(OC)cc1 [Compound 13, N^α-acryloyl-N^π-methyl-L-histidine 4-methoxyphenethyl ester]

AUC [5]: 5.1332 µg·h/mL
Cmax [5]: 0.7792 µg/mL
SMILES: C=CC(=O)N[C@@H](Cc1cncn1C)C(=O)OCCc1ccc(C)cc1 [Compound 14, N^α-acryloyl-N^π-methyl-L-histidine 4-methylphenethyl ester]

AUC ([4]; rat, in vivo, po, 10 mg/kg): 3.6206 µg·h/mL
Cmax ([4]; rat, in vivo, po, 10 mg/kg): 2.3918 µg/mL
SMILES: C=CC(=O)N[C@@H](Cc1cncn1C)C(=O)OCCc1ccc(Cl)cc1 [Compound 15, N^α-acryloyl-N^π-methyl-L-histidine 4-chlorophenethyl ester]

AUC ([4]; rat, in vivo, po, 10 mg/kg): 3.6018 µg·h/mL
Cmax ([4]; rat, in vivo, po, 10 mg/kg): 2.5627 µg/mL
SMILES: C=CC(=O)N[C@@H](Cc1cncn1C)C(=O)OCCc1ccc(C(C)(C)C)cc1 [Compound 16, N^α-acryloyl-N^π-methyl-L-histidine 4-tert-butylphenethyl ester]

More lines, now with the values behind:

SMILES: CC=CC(=O)N[C@@H](Cc1cncn1C)C(=O)O [Carboxylic acid type B, N^α-crotonoyl-N^π-methyl-L-histidine]
Analgesic coefficient [1]: 1.23

SMILES: CCn1cncc1C[C@H](NC(=O)C=Cc1ccccc1)C(=O)O [Carboxylic acid type C, N^α-3-phenylpropenoyl-N^π-ethyl-L-histidine]
Analgesic coefficient [1]: 1.14
Suppressive Rate (%) [2]: 27.7%

SMILES: C=CC(=O)N[C@@H](Cc1cncn1Cc1ccccc1)C(=O)O [Carboxylic acid type D, N^α-acryloyl-N^π-benzyl-L-histidine]
Suppressive Rate (%) [2]: 37.9%
threshold as compared with the nerve injury control group ([3]; intraperitoneal single dose): significant increase in the threshold
50% reaction threshold value ([3]; intraperitoneally 400 μg/kg single dose, 30 minutes after administration): 7.32 g

SMILES: CC(C)=CC(=O)N[C@@H](Cc1cncn1C)C(=O)O [Carboxylic acid type E, N^α-3-metylcrotonoyl-N^π-methyl-L-histidine]
Suppressive Rate (%) [2]: 17.8%

SMILES: C=CC(=O)N[C@@H](Cc1cncn1C)C(=O)OCC(C)(C)C [Compound 3, N^α-acryloyl-N^π-methyl-L-histidine neopentyl ester]
AUC ([4]; rats, oral 10 mg/kg single dose, 0 to 8 hours, Carboxylic acid type A quantified in plasma, values converted to dose equimolar to Carboxylic acid type A): 2.3739 µg·h/mL
Cmax ([4]; rats, oral 10 mg/kg single dose, Carboxylic acid type A quantified in plasma, values converted to dose equimolar to Carboxylic acid type A): 2.074 µg/mL

SMILES: C=CC(=O)N[C@@H](Cc1cncn1C)C(=O)OC(C)OC(=O)OC1CCCCC1 (stereo partly drawn) [Compound 17, N^α-acryloyl-N^π-methyl-L-histidine 1-(cyclohexyloxycarbonyloxy)ethyl ester]
AUC ([4]; rat, in vivo, po, 10 mg/kg): 2.7049 µg·h/mL
Cmax ([4]; rat, in vivo, po, 10 mg/kg): 2.0443 µg/mL

SMILES: C=CC(=O)N[C@@H](Cc1cncn1C)C(=O)OC(c1ccccc1)c1ccccc1 [Compound 24, N^α-acryloyl-N^π-methyl-L-histidine diphenylmethyl ester]
AUC ([4]; rat, in vivo, po, 10 mg/kg): 2.6142 µg·h/mL
Cmax ([4]; rat, in vivo, po, 10 mg/kg): 1.4953 µg/mL

SMILES: Cl.Cn1cncc1C[C@H](NC(=O)C=Cc1ccccc1O)C(=O)OCCc1ccccc1 [Compound 26, N^α-[3-(2-hydroxyphenyl)acryloyl]-N^π-methyl-L-histidine phenethyl ester hydrochloride]
Suppressive Rate (%) [2]: 23.8%

SMILES: NCCC(=O)N[C@@H](Cc1cnc[nH]1)C(=O)O [carnosine, β-ananyl-L-histidine, reference compound]
analgesic action ([1]; administration into the lateral ventricle): no significant analgesic action

From patent US8324261B2, “Histidine derivatives” (Nippon Zoki Pharmaceutical Co., Ltd., priority 2007, dated 2012)
